Assay results as given in publication PMC8662641, “Site-Specific Labeling of Endogenous Proteins Using CoLDR Chemistry” (Journal of the American Chemical Society, 2021).
Like-named read-outs stand apart in the source and are kept apart here.

Key:
[1] = molecular target: T1, BTK (Homo sapiens, UniProt Q06187); experiment: Degradation of BTK by a CoLDR PROTAC in Mino cells; assay type: cell-based; parameters: We incubated Mino B cells with probes containing different tags; endogenous in cells; host or cells: Mino cells; conditions: for DC50: Mino cells, 24 h, Western blot
Target sequence in this assay (Q06187 whole entry, the tested form may be a part): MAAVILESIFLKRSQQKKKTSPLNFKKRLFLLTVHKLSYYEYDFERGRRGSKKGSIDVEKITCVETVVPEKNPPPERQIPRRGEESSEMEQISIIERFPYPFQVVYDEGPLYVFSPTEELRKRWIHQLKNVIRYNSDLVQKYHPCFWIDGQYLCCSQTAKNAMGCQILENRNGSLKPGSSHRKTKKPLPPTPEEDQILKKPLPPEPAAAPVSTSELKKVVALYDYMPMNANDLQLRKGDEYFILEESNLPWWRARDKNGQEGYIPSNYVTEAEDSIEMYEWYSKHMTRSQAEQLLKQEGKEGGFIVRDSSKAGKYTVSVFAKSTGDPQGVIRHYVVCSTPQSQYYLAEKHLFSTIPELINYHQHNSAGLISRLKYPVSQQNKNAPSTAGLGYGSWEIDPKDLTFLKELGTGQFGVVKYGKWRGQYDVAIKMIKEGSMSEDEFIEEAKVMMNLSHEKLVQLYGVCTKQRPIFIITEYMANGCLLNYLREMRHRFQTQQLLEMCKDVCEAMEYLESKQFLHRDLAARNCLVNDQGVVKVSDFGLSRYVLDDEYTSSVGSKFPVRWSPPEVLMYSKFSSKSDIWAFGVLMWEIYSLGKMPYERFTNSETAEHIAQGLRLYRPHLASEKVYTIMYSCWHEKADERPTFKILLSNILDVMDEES

[2] = molecular target: T1, BTK; parameters: BTK kinase domain was expressed and purified as previously reported; made in house; method as in Reddi et al., J. Am. Chem. Soc. 2021, 143 (13), 4979–4992; conditions: ref Reddi et al., J. Am. Chem. Soc. 2021, 143 (13), 4979–4992; cited from earlier work
Target sequence in this assay (Q06187 402-655 limits assumed): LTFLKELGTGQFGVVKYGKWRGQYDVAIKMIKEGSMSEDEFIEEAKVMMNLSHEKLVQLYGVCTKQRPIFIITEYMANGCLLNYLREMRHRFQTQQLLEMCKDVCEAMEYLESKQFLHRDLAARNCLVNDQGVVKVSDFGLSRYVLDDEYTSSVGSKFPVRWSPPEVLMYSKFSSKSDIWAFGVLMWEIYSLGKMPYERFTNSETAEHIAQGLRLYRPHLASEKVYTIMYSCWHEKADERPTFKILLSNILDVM

[3] = test system: Aurora A; parameters: method as in selleck (supplier comment); conditions: ref selleck (supplier comment); cited from earlier work
[4] = molecular target: T1, BTK; experiment: In-gel fluorescence labeling profile in Mino cells; conditions: for labeling of BTK in live Mino cells: 2 h incubation, in-gel fluorescence
Target sequence in this assay (Q06187 whole entry, the tested form may be a part): as the sequence (Q06187 whole entry, the tested form may be a part) above

[5] = molecular target: T1, BTK; experiment: BTK activity in Mino cells (autophosphorylation); assay type: cell-based; parameters: We incubated Mino B cells with probes containing different tags; endogenous in cells; host or cells: Mino cells; conditions: Mino cells, 1 h; 100 nM probes, 1 μM ibrutinib or Ibr-H
Protocol: The cells were harvested, and immunoblots of phospho-BTK, total-BTK, and β-actin were performed.
Cell pellets were washed with ice-cold PBS and lysed using RIPA buffer (Sigma, R0278). […] Samples containing 50 μg of total protein were prepared with 4× LDS sample buffer (NuPAGE, Thermo Fischer Scientific, NP0007) and were then resolved on a 4–20% Bis-Tris gel (GeneScript SurePAGE, M00657). […] The EZ-ECL kit (Biological Industries, 20-500-1000) was used to detect HRP activity.
Target sequence in this assay (Q06187 whole entry, the tested form may be a part): as above

[6] = Buffer stability assay; assay type: physicochemical
Protocol: A sample of 100 μM of the electrophile (1a–1p) was incubated with 100 μM 4-nitrocyanobenzene as an internal standard in a 100 mM potassium phosphate buffer of pH 8.0. All solvents were bubbled with argon. Reaction mixtures were kept at 37 °C with shaking. After 4 days (unless otherwise mentioned), 5 μL from the reaction mixture was injected into the LC/MS to check the stability of the compounds.

[7] = test system: primary mouse B cells; experiment: B-cell response experiment (CD86 after anti-IgM); assay type: cell-based; conditions: 24 h treatment, 1–1000 nM
Protocol: Splenic cells from C57BL/6 mice were isolated by forcing spleen tissue through the mesh into PBS containing 2% fetal calf serum and 1 mM EDTA, and red blood cells were depleted by lysis buffer. […] Following a 24 h incubation, cells were stimulated with anti-IgM overnight (5 μg/mL, Sigma-Aldrich). […] Single-cell suspensions were analyzed by a flow cytometer (CytoFlex, Beckman Coulter).

[8] = GSH reactivity assay; assay type: physicochemical; conditions: for half-life at 100 μM: 5 mM GSH in potassium phosphate buffer/DMF, pH 8, read-out: GSH t1/2
Protocol: A 100 μM (0.5 μL of a 20 mM stock) sample of the electrophile (1a–1m) was incubated with 5 mM GSH (5 μL of a 100 mM stock, freshly dissolved), 5 mM NaOH (to counter the acidity imparted by GSH), and 100 μM 4-nitrocyanobenzene (0.5 μL of a 20 mM stock solution) as an internal standard in 100 mM potassium phosphate buffer pH 8.0 and DMF at a ratio of 9:1, respectively. All solvents were bubbled with argon. Reaction mixtures were kept at 14 °C. Every 1 h 5 μL from the reaction mixture was injected into the LC/MS. The reaction was followed by the peak area of the electrophile normalized by the area of the 4-nitrocyanobenzene (i.e., by the disappearance of the starting material). The natural logarithm of the results was fitted to linear regression, and t1/2 was calculated as t1/2 = ln 2/–slope.

[9] = molecular target: ubiquitin C-terminal hydrolase L3; parameters: method as in selleck (supplier comment); conditions: ref selleck (supplier comment); cited from earlier work
[10] = molecular target: T2, BTK-1h (Homo sapiens, UniProt Q06187); experiment: High-throughput screening with 1h-labeled BTK; assay type: binding
T2 construct: The BTK kinase domain was diluted to 2 μM in the buffer, and 2 μM 1h was added; made in house
Protocol: The collection was composed of BTK binding compounds obtained in our previous luminescence screen[37] (Data set S2). […] The resulting BTK-1h (50 μL) was added to the inhibitors.

[11] = molecular target: BTK kinase domain (Homo sapiens, UniProt Q06187); experiment: Labeling of recombinant BTK by intact protein LC/MS; assay type: binding; parameters: BTK kinase domain was expressed and purified as previously reported; made in house; conditions: BTK 2 μM, 2a 2 μM, 10 min, 25 °C, pH 8
[12] = test system: Mino cells; experiment: Degradation proteomics (label-free quantitative proteomics); assay type: cell-based, human; conditions: 1n 500 nM, 24 h
Protocol: A total of 1 × 10^6 Mino cells were treated in four replicates with either 1n (500 nM) or DMSO (0.1%) for 24 h. Cells were then harvested and washed with ice cold PBS. Samples were then centrifuged at 200 rcf, 4 °C for 5 min; then the supernatant was removed and the samples were frozen at −80 °C. Samples were dispersed in 75 μL of 50 mM ammonium bicarbonate and transferred to 1.8 mL glass vials. A 75 μL amount of 10% SDS in 50 mM ammonium bicarbonate was added, and the samples were heated to 96 °C for 6 min. The samples were sonicated thoroughly in a sonication bath until the DNA was sheared, as indicated by reduction in viscosity to a level enabling easy pipettation. Total protein concentration was estimated using the BCA assay, and 30 μg from each sample was taken for LC/MS/MS analysis. The detailed procedure is available in the Supplementary Methods Section.
Trypsin/P with a maximum number of missed cleavages of 2. Oxidation of methionine and N-terminal acetylation were included as variable modifications. The “Re-quantify” option was enabled. Carbamidomethyl (C2H3NO) was used as a fixed modification on cysteine.
Contaminants were included. Peptides were searched with a minimum peptide length of 7 and a maximum peptide mass of 6500 Da. “Second peptides” was enabled, “Dependent peptides” were disabled and the option “Match between run” was enabled with a Match time window of 0.7 min and an alignment window of 20 min. An FDR of 0.01 was used for Protein FDR, PSM FDR and XPSM FDR. Proteins were identified and quantified based on the label-free quantification (LFQ) (REF: www.mcponline.org/content/13/9/2513.short) values reported by MaxQuant. Following MaxQuant analysis, proteins identified only through razor peptides or modified peptides, as well as common contaminants, were removed, and only proteins that gave at least 3 non-zero LFQ intensity values in at least one of the data sets were retained for analysis. Missing values were then replaced from a normal distribution.
Degradation proteomics experiment (label free quantitative proteomics)
Sample preparation: 106 Mino cells were treated in four replicates with either compound or DMSO for 24 hours. Cells were then washed twice by centrifuge at 200 rcf, 4°C for 5 minutes, removing the supernatant and washed with ice cold PBS. Samples were then centrifuged at 200 rcf, 4°C for 5 minutes, then supernatant was removed and samples were frozen at -80°C. Samples were dispersed in 75 μl of 50 mM ammonium bicarbonate, and transferred to 1.8 mL glass vials.
75 μl of 10% SDS in 50 mM ammonium bicarbonate were added and the samples were heated to 96°C for 6 minutes. The samples were sonicated thoroughly in a sonication bath until the DNA was sheared as indicated by reduction in viscosity to level enabling easy pipettation. Total protein concentration was estimated using BCA assay and 30 µg from each sample was taken for the […]
The samples were reduced by the addition of 1/20 volume of 100 mM DTT and heating to 60°C for 45 minutes. The samples were cooled to room temperature, and 1/20 volume of 200 mM iodoacetamide was added and the reaction was performed in the dark for 30 minutes.
At this point, 1/10 volume of 12% phosphoric acid was added, followed by 6 volumes of 90% methanol in 50 mM ammonium bicarbonate. The samples were loaded on S-trap Micro columns (Protify), and washed 3 times with 90% methanol in 50 mM ammonium bicarbonate. The columns were spun without washing to dry the methanol. […]

[13] = Dataset S2A, 200 μM compound, BTK-1h, 32 °C, 10 min
[14] = phosphate buffer pH 8, 37 °C, in 2 days

T2 sequence (Q06187 402-655): as the sequence (Q06187 402-655 limits assumed) above
Sequence of BTK kinase domain (Q06187 402-655 limits assumed): as above

O=C1CCC(N2C(=O)c3cccc(O)c3C2=O)C(=O)N1 (stereo not drawn) [thalidomide-OH]
rescue of 1n-induced BTK degradation ([1]; Mino cells pretreated 2 h before PROTAC 24 h): able to rescue the degradation

Cc1cc(Nc2cc(N3CCN(C)CC3)nc(/C=C/c3ccccc3)n2)n[nH]1 [PCM-0095056-003, ENMD-2076]
BTK Inhibition reported in luminescence assay* [2]: 91
IC50 [3]: 14 nM

C=C(CN1CCC[C@@H](n2nc(-c3ccc(Oc4ccccc4)cc3)c3c(N)ncnc32)C1)C(=O)NCCNC(=O)CCC(=O)N1Cc2ccccc2C#Cc2ccccc21 [1f]
labeling of BTK in live Mino cells [4]: labeled BTK at a concentration of 100 nM
time to robust labeling of BTK in cells ([4]; Mino cells, 100 nM probe): 30 to 60 min
BTK autophosphorylation after anti-IgM [5]: did not affect the activity
buffer stability ([6]; phosphate buffer pH 8, 37 °C, 4 days): No further hydrolysis has been observed under these buffer conditions
B cell activation (CD86 expression) after anti-IgM [7]: did not inhibit the activation of B cells

C#CCCCCC(=O)NC1CCN(C(=O)C(=C)CN2CCC[C@@H](n3nc(-c4ccc(Oc5ccccc5)cc4)c4c(N)ncnc43)C2)CC1 [1d]
half-life at 100 μM ([8]; 100 μM compound): > 100 h
less reactive toward GSH than ibrutinib ([8]; 5 mM GSH, pH 8): > 20 fold
labeling of BTK in live Mino cells [4]: labeled BTK with more selectivity

O=C1CC(=O)c2c(Cl)c(Cl)c(Cl)c(Cl)c21 [PCM-0215201-001, TCID]
IC50 [9]: 600 nM
selectivity to L1 [9]: 125 fold
FI (650)/FI (620) [10, 13]: 25.7359
FI (BTK-1h)/FI (BTK-1h+Inhibitor) at 620 nm [10, 13]: 0.9352
FI (BTK-1h)/FI (BTK-1h+Inhibitor) at 620 nm ([10]; Dataset S2B, 200 μM inhibitor added to BTK-1h (2 μm)): 25.7359
BTK Inhibition reported in luminescence assay* [2]: 79.5

Cc1cc(Nc2cc(N3CCN(C)CC3)nc(/C=C/c3ccccc3)n2)n[nH]1.O=C(O)C(O)C(O)C(=O)O [ENMD-2076 L-(+)-Tartaric acid]
FI (650)/FI (620) ([10]; Dataset S2C, BTK-1h with inhibitor): 1.943
selectivity for Aurora A over Aurora B [3]: 25 fold

C#CCCNC(=O)C(=C)CN1CCC(CNc2ncnc(N)c2-c2ccc(Oc3ccccc3)cc2)CC1 [2a]
single labeling of target (BTK) [11]: 100%

C=C(CN1CCC[C@@H](n2nc(-c3ccc(Oc4ccccc4)cc3)c3c(N)ncnc32)C1)C(=O)NCCOCCOCCOCCOCCNc1cccc2c1C(=O)N(C1CCC(=O)NC1=O)C2=O (stereo partly drawn) [1n]
DC50 ([1]; read-out: DC50): < 100 nM
DC50 ([1]; read-out: DC50 according to the polynomial fit): 11.4 nM
water adduct formed ([6]; PBS buffer pH 8, 37 °C): 15%
Log2(DMSO/treated) ([12]; BTK_HUMAN): 4.3089
Log2(DMSO/treated) ([12]; EXOS4_HUMAN): 1.641
Log2(DMSO/treated) ([12]; H14_HUMAN;H11_HUMAN;H1T_HUMAN): 1.44
depletion of BTK ([12]; Mino cells): more than 16 fold
depletion of CSK ([12]; Mino cells): more than 50%

C=C(CN1CCC[C@@H](n2nc(-c3ccc(Oc4ccccc4)cc3)c3c(N)ncnc32)C1)C(=O)OCC [1a]
time to complete reaction with GSH ([8]; 100 μM compound, 5 mM GSH, pH 8, 14 °C): ≤ 10 min
half-life at 100 μM ([8]; 100 μM compound): < 0.167 h
hydrolysis/elimination ([6]; PBS buffer pH 8, 37 °C, in two days): 100%
elimination [6, 14]: 50%
hydrolysis [6, 14]: 50%
